Test results: article PMC10487437 (International Journal of Molecular Sciences, 2023)
Primed or numbered codes have the meaning given here. * marks the point of attachment. Dabcyl′ = CN(C)c1ccc(/N=N/c2ccc(C(=O)*)cc2)cc1; EDANS = O=S(=O)(O)c1cccc2c(NCCN*)cccc12

B1: Dabcyl-KQ10PPD-EDANS (peptide)
peptide: {Dabcyl′}-KQQQQQQQQQQPPD-{EDANS}
SMILES: CN(C)c1ccc(/N=N/c2ccc(C(=O)N[C@@H](CCCCN)C(=O)N[C@@H](CCC(N)=O)C(=O)N[C@@H](CCC(N)=O)C(=O)N[C@@H](CCC(N)=O)C(=O)N[C@@H](CCC(N)=O)C(=O)N[C@@H](CCC(N)=O)C(=O)N[C@@H](CCC(N)=O)C(=O)N[C@@H](CCC(N)=O)C(=O)N[C@@H](CCC(N)=O)C(=O)N[C@@H](CCC(N)=O)C(=O)N[C@@H](CCC(N)=O)C(=O)N3CCC[C@H]3C(=O)N3CCC[C@H]3C(=O)N[C@@H](CC(=O)O)C(=O)NCCNc3cccc4c(S(=O)(=O)O)cccc34)cc2)cc1
B2: Dabcyl-KQ5GD-EDANS (peptide)
peptide: {Dabcyl′}-KQQQQQGD-{EDANS}
SMILES: CN(C)c1ccc(/N=N/c2ccc(C(=O)N[C@@H](CCCCN)C(=O)N[C@@H](CCC(N)=O)C(=O)N[C@@H](CCC(N)=O)C(=O)N[C@@H](CCC(N)=O)C(=O)N[C@@H](CCC(N)=O)C(=O)N[C@@H](CCC(N)=O)C(=O)NCC(=O)N[C@@H](CC(=O)O)C(=O)NCCNc3cccc4c(S(=O)(=O)O)cccc34)cc2)cc1
B3: Dabcyl-KQ10GD-EDANS (peptide)
peptide: {Dabcyl′}-KQQQQQQQQQQGD-{EDANS}
SMILES: CN(C)c1ccc(/N=N/c2ccc(C(=O)N[C@@H](CCCCN)C(=O)N[C@@H](CCC(N)=O)C(=O)N[C@@H](CCC(N)=O)C(=O)N[C@@H](CCC(N)=O)C(=O)N[C@@H](CCC(N)=O)C(=O)N[C@@H](CCC(N)=O)C(=O)N[C@@H](CCC(N)=O)C(=O)N[C@@H](CCC(N)=O)C(=O)N[C@@H](CCC(N)=O)C(=O)N[C@@H](CCC(N)=O)C(=O)N[C@@H](CCC(N)=O)C(=O)NCC(=O)N[C@@H](CC(=O)O)C(=O)NCCNc3cccc4c(S(=O)(=O)O)cccc34)cc2)cc1

Tests used:
[1] = molecular target: 26S proteasome (mouse (endogenous in brain)) (UniProt Q60692)
[2] = molecular target: 20S proteasome (mouse (endogenous in brain)) (UniProt Q60692)
[3] = test system: 26S proteasome from murine brain; assay: Specific peptidase activity of 26S proteasome with additives (Table S1)
[4] = test system: T1, 20S proteasome from murine brain; assay: Specific peptidase activity of 20S proteasome with additives (Table S1); format: biochemical, mouse; conditions: for Specific peptidase activity using Suc-LLVY-AMC: 20S plus additive: 0.5 µM Bortezomib, 0.1 µM MG132, 0.02% SDS or 11S (1:2, mole:mole), 20S alone 2.37 ± 0.13
T1 construct: from tissue; host or cells: mouse brain
Excerpt: Characterization of puriﬁed proteasomes
teasomes. […] To conﬁrm that
cathepsin B [48] (Table S1).
reaction mixture for both 20S and 26S.
Table S1. Peptidase activity of the samples of 20S and 26S proteasome from murine brain.
The molar ratio between the proteasome

20S+11S = test system: T2, 20S+11S; assay: Apparent kinetic parameters of FRET substrate hydrolysis by 20S+11S complex; format: biochemical, mouse; conditions: for Km / Vmax·10^−2: apparent, 20S+11S, molar ratio 1:4, substrate 5 to 100 µM, 37 °C, means ± SEM of three independent experiments run in duplicate; for Km: Michaelis-Menten, fluorescence 340/490 nm, 1 h; for Vmax (+11S)/Vmax: ratio of Vmax by 20S+11S to Vmax by 20S, proteasome:11S 1:4
T2 construct: from tissue; host or cells: mouse brain

20S proteasome [5] = test system: T3, 20S proteasome; assay: Determination of proteolysis sites of oligoglutamine peptides by LC-MS; format: biochemical, mouse; conditions: for Products of proteasomal hydrolysis identified: LC-MS, identical for all proteasome complexes (20S, 20S+11S, 26S, 26S+11S); for Peak of the starting substrate after incubation with 20S proteasome: incubation for 48 h, UPLC C18, UV-VIS and MS detection
T3 construct: from tissue; host or cells: mouse brain
Description: Next, we determined proteolysis sites for our oligoglutamine-containing peptides using liquid chromatography-mass spectrometry (LC-MS). The chromatogram of the Dabcyl-KQ5GD-EDANS solution in DMSO (Figure 3a) has a peak at the retention time of 1.69 min. According to the mass spectrum (Figure 3b), this peak corresponds to the Dabcyl-KQ5GD-EDANS (M = 1458.69 g/mole; z = 2; m/z = 729) molecule. Another fragment with m/z = 252 corresponds to the Dabcyl- (C15H14N3O), and the one with m/z = 380 corresponds to the DabcylK- (C21H26N5O2) fragment. These peaks are likely to arise due to fragmentation in a mass spectrometer since, upon hydrolysis, the masses of these fragments would be 269 and 397, respectively. After the incubation with proteasome for 48 h, the peak at 1.69 min disappeared (Figure 3c), and two other peaks appeared with retention times equal to 1.45 and 1.72 min. These peaks were assigned to the N- and C-ends of the peptide on the basis of the difference in the absorption spectra of the Dabcyl and EDANS moieties. […] Other products were not detected either at short (15 min) or longer hydrolysis times (72 h).
Next, we identified cleavage sites for the substrate with a longer oligoglutamine fragment (Figure 4). The peak with a retention time of 1.06 min (Figure 4a) that corresponds to the Dabcyl-KQ10PPD-EDANS (M = 2236.38 g/mole; z = 2; m/z = 1118) molecule (Figure 4b) disappeared after the substrate was incubated with the 20S proteasome for 48 h. Instead, two other peaks appeared, at 1.14 and 1.37 min (Figure 4c). According to UV spectra for both peaks, the fragment at 1.14 min had Dabcyl chromophore, and the second fragment carried EDANS fluorophore. Finally, according to mass calculation, the first product was attributed to the Dabcyl-KQ2 fragment (Figure 4d) and the second one to the Q7PPD-EDANS moiety (Figure 4e).
Peptide samples were analyzed on an Acquity UPLC system (Waters, Milford, MA, USA) connected to a PDA detector and TQD mass spectrometer (Waters). […] The gradient program was as follows: from 5%B to 50%B per 3 min, from 50%B to 5%B per 0.1 min, at a flow rate of 0.5 mL/min and a temperature of 35 °C. Solvent A: 20 mM formic acid in acetonitrile/water (1:20)/Solvent B: 20 mM formic acid in acetonitrile. Instrument settings and measuring parameters TQD were as follows: capillary voltage 3.5 kV; cone voltage 25 V; source temperature 120 °C; desolvation temperature 450 °C; cone gas flow 50 L/h; desolvation gas flow 800 L/h; MS1 scanning mass from 50 to 1500 Da; positive polarity. The PDA detector range was 220–500 nm. The resulting raw data were analyzed using the MassLynx software (version 4.1 SCN919).

26S proteasome = test system: T4, 26S proteasome; assay: Apparent kinetic parameters of FRET substrate hydrolysis by 26S proteasome; format: biochemical, mouse; conditions: substrate 5 to 100 µM, 37 °C, means ± SEM of three independent experiments run in duplicate; for Km: Michaelis-Menten, fluorescence 340/490 nm, 1 h
T4 construct: from tissue; host or cells: mouse brain

26S+11S = test system: T5, 26S+11S; assay: Apparent kinetic parameters of FRET substrate hydrolysis by 26S+11S complex; format: biochemical, mouse; conditions: for Km / Vmax·10^−2: apparent, 26S+11S, molar ratio 1:4, substrate 5 to 100 µM, 37 °C, means ± SEM of three independent experiments run in duplicate; for Km: Michaelis-Menten, fluorescence 340/490 nm, 1 h; for Vmax (+11S)/Vmax: ratio of Vmax by 26S+11S to Vmax by 26S, proteasome:11S 1:4
T5 construct: from tissue; host or cells: mouse brain

20S proteasome [6] = test system: T3, 20S proteasome; assay: Apparent kinetic parameters of FRET substrate hydrolysis by 20S proteasome; format: biochemical, mouse; conditions: substrate 5 to 100 µM, 37 °C, means ± SEM of three independent experiments run in duplicate; for Km: Michaelis-Menten, fluorescence 340/490 nm, 1 h
[7] = means ± SEM of three independent experiments run in duplicate

Sequence of 26S proteasome (mouse (endogenous in brain)) (Q60692 whole entry, looked up): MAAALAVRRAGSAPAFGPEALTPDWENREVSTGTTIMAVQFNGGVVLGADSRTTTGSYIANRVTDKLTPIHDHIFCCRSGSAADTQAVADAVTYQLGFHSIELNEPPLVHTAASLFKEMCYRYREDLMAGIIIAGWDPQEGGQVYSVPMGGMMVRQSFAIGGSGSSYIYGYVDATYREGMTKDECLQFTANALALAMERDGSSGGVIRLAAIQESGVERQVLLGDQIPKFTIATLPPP
Sequence of 20S proteasome (mouse (endogenous in brain)) (Q60692 whole entry, looked up): as above

Molecule	Km (20S+11S)	Vmax·10^−2 (20S+11S)	Vmax (+11S)/Vmax (20S+11S)	Km (26S proteasome)	Vmax·10^−2 (26S proteasome)	Km (26S+11S)	Vmax·10^−2 (26S+11S)	Vmax (+11S)/Vmax (26S+11S)	Km (20S proteasome [6])	Vmax·10^−2 (20S proteasome [6])	apparent Km of hydrolysis by 26S+11S (proteasome:11S 1:4) [1]	apparent Km of hydrolysis by the 26S proteasome [1]	apparent Km of hydrolysis by 20S+11S (proteasome:11S 1:4) [2]	apparent Km of hydrolysis by the 20S proteasome [2]	further results
11S regulator (PA28αβ) (from UniProt P97371 1-249; P97372 1-239) (complex)															Vmax (+11S)/Vmax of hydrolysis of Dabcyl-KQ5GD-EDANS by the 26S proteasome, proteasome:11S 1:4 [1]: 1; Vmax (+11S)/Vmax of hydrolysis of Dabcyl-KQ10GD-EDANS by the 26S proteasome, proteasome:11S 1:4 [1]: 1.4; Vmax (+11S)/Vmax of hydrolysis of Dabcyl-KQ10PPD-EDANS by the 26S proteasome, proteasome:11S 1:4 [1]: 2; Vmax (+11S)/Vmax of hydrolysis of Dabcyl-KQ5GD-EDANS by the 20S proteasome, proteasome:11S 1:4 [2]: 2.7; Vmax (+11S)/Vmax of hydrolysis of Dabcyl-KQ10GD-EDANS by the 20S proteasome, proteasome:11S 1:4 [2]: 1.5; Vmax (+11S)/Vmax of hydrolysis of Dabcyl-KQ10PPD-EDANS by the 20S proteasome, proteasome:11S 1:4 [2]: 2.3
11S: 11S proteasomal regulator (PA28) consisting of α/β subunits, isolated from mouse brain															Specific peptidase activity using Ac-RLR-AMC ([3]; 26S+11S (1:2, mole:mole), 26S alone 1.92 ± 0.06, means ± SEM of three independent experiments run in duplicate): 2.5 ± 0.2 nM/min/µg; Specific peptidase activity using Z-LLE-AMC ([3]; 26S+11S (1:2, mole:mole), 26S alone 5.4 ± 0.1, means ± SEM of three independent experiments run in duplicate): 6.7 ± 0.5 nM/min/µg; Specific peptidase activity using Suc-LLVY-AMC [4, 7]: 8.8 ± 0.4 nM/min/µg; Specific peptidase activity using Z-LLE-AMC ([4]; 20S+11S (1:2, mole:mole), 20S alone 1.14 ± 0.02, means ± SEM of three independent experiments run in duplicate): 5.2 ± 0.1 nM/min/µg; Specific peptidase activity using Ac-RLR-AMC ([4]; 20S+11S (1:2, mole:mole), 20S alone 2.78 ± 0.07, means ± SEM of three independent experiments run in duplicate): 8.4 ± 0.2 nM/min/µg
CCCCCCCCCCCCOS(=O)(=O)[O-].[Na+] [SDS]															Effect on the 26S proteasome activity ([3]; in the presence of 0.02% SDS): completely inhibited; Specific peptidase activity using Suc-LLVY-AMC [4, 7]: 34 ± 6 nM/min/µg; Increase of the activity of the 20S proteasome ([4]; in the presence of 0.02% SDS): 13–15 times
Dabcyl-KQ5GD-EDANS [internally quenched fluorogenic FRET substrate with five glutamine residues, EDANS-Dabcyl pair]	60 ± 8 µM	6.1 ± 1.4 10^−2 μM·min^−1	2.7	54 ± 10 µM	2.0 ± 0.3 10^−2 μM·min^−1	52 ± 10 µM	2.1 ± 0.3 10^−2 μM·min^−1	1.0	52 ± 8 µM	2.3 ± 0.3 10^−2 μM·min^−1					Products of proteasomal hydrolysis identified (20S proteasome [5]): Dabcyl-KQ2 and QGD-EDANS; Peak of the starting substrate after incubation with 20S proteasome (20S proteasome [5]): disappeared
Dabcyl-KQ10GD-EDANS [internally quenched fluorogenic FRET substrate with ten glutamine residues, EDANS-Dabcyl pair]	64 ± 14 µM	0.92 ± 0.15 10^−2 μM·min^−1	1.5	18 ± 2 µM	0.09 ± 0.01 10^−2 μM·min^−1	38 ± 9 µM	0.12 ± 0.03 10^−2 μM·min^−1	1.4	40 ± 3 µM	0.61 ± 0.02 10^−2 μM·min^−1					
Dabcyl-KQ10PPD-EDANS	5.3 ± 1.3 µM	1.66 ± 0.07 10^−2 μM·min^−1	2.3	24.5 ± 10 µM	2.3 ± 0.2 10^−2 μM·min^−1	20 ± 4.6 µM	4.73 ± 0.35 10^−2 μM·min^−1	2.0	8.2 ± 1.5 µM	0.73 ± 0.03 10^−2 μM·min^−1					Products of proteasomal hydrolysis identified (20S proteasome [5]): Dabcyl-KQ2 and Q7PPD-EDANS; Peak of the starting substrate after incubation with 20S proteasome (20S proteasome [5]): disappeared
B1											20 µM	24.5 µM	5.3 µM	8.2 µM	
B2											52 µM	54 µM	60 µM	52 µM	
B3											38 µM	18 µM	64 µM	40 µM	
